Measurements as given in patent publication US20190343908A1, “Therapeutic Combination for the Treatment of Cancer” (Nerium Biotechnology Inc., priority 2011, published 2019).

How the values were obtained:
[1] = tested on: LNCaP prostate cancer cell line; experiment: Sulforhodamine B viability assay, LNCaP; format: cell-based, human; details: for ABSORBANCE: LNCaP, 0.1 μg/mL cisplatin
Source text: (§1) Three different viability assays were chosen to complement each other and yielded results dependent on concentration and cell line: the Methyl Tetrazolium dye assay, the Sulforhodamine B fluorescent dye assay, and the Crystal Violet dye assay.
The Sulforhodamine B and Crystal Violet assays provide information about protein and were used to complement the Methyl-Tetrazolium dye assay. […] It is used for the quantification of cellular proteins of cultured cells. The assay using Crystal Violet, a dye that binds electrostatically to proteins and stains DNA, provides a reliable, simple assay for measuring viability of cells.
(§2) The Methyl Tetrazolium, Sulforhodamine B, and Crystal Violet assays were used to assess cell viabilities. The incubation times were 24 hours, 48 hours, and 72 hours. The Nerium oleander extract Anvirzel™ (a hot water extract of oleander obtained from Salud Integral, Honduras) was tested in concentrations ranging from 0.01 ng/mL to 10 ng/mL.
(§3) Cells were detached by trypsinization (Trypsin-0.25% EDTA, Invitrogen, 25200-072) during the logarithmic phase of culture growth and plated in 96-well plates (18.000 cells/well) (Corning, Costar 359) in a final volume of 200 μl of medium per well. […] The absorbance was measured after 24 hours, 48 hours, and 72 hours of incubation.
For the Sulforhodamine B assay, 96-well plates were fixed by 10% trichloroacetic acid (Fluka, 91228) and were incubated at 4° C. for 1 hour. Afterwards, plates were rinsed with water and cells were stained with 0.4% Sulforhodamine B (Sigma, 341738), dissolved in 1% acetic acid (Carlo Ebra, 401422) for 15 minutes at room temperature (RT). The unbound stain was washed twice with 1% acetic acid. Finally, 10 mM Tris Buffer pH 10.5 (Sigma, T6791) was added to dissolve the dye.
(§4) The optical density of each plate was measured on a μQuant spectrophotometer and the data were analyzed with Gen5 software (μQuant Biomolecular Spectrophotometer MQX200 and Gen5™ Microplate Data Collection & Analysis software, BioTek® Instruments. Inc, April 2008). Absorbance was measured at 570 nm for all assays and a second wavelength was measured in order to subtract noise. For the Methyl-Tetrazolium assay this second wavelength was 630 nm and for the Sulforhodamine B and Crystal Violet assays it was 690 nm.

[2] = tested on: A375 melanoma cancer cell line; experiment: Methyl-Tetrazolium viability assay, A375; format: cell-based, human; details: for ABSORBANCE: 0.1 μg/mL cisplatin; for Average absorbance, MTT 24 h / Average absorbance, MTT 48 h / Average absorbance, MTT 72 h: A375 Run 1
Source text: as §1
The Methyl-Tetrazolium dye assay measures the activity of enzymes in mitochondria. The dye precursor is taken up by cells, where it undergoes reduction to the purple formazan. It measures only the mitochondrial activity and, thus, it is not always a reliable indication of whether the cells themselves are alive or dead, since even a recently dead cell has […] enzyme activity in mitochondria. Intracellular glucose concentration, pH, and time before assay all affect the measurements.
as §2, §3
For the Methyl-Tetrazolium assay, the dye (Sigma, M2128; 5 mg/mL, diluted in phosphate-buffered saline) was added to each well and plates were incubated for 3 hours at 37° C. After the end of the incubation period, the medium was discarded and the cells were rinsed with phosphate-buffered saline. Finally, the formazan crystals were dissolved in dimethylsulphoxide (Sigma, D4540).
as §4

With N.N.[Cl][Pt][Cl] [cisplatin] the “SRB Average” value ([1]; LNCaP Run 3, 24 h, 0.1 μg/ml CDDP) was 1.975, the “SRB Average” value ([1]; LNCaP Run 3, 24 h, 1 μg/ml CDDP) was 1.541 and the “SRB Average” value ([1]; LNCaP Run 3, 24 h, 10 μg/ml CDDP) was 1.242. The “SRB Average” value ([1]; LNCaP Run 3, 24 h, 100 μg/ml CDDP) was 1.2, the “SRB Average” value ([1]; LNCaP Run 3, 48 h, 0.1 μg/ml CDDP) was 1.761 and the “SRB Average” value ([1]; LNCaP Run 3, 48 h, 1 μg/ml CDDP) was 1.56. For the same compound, the “SRB Average” value ([1]; LNCaP Run 3, 48 h, 10 μg/ml CDDP) was 1.46, the “SRB Average” value ([1]; LNCaP Run 3, 48 h, 100 μg/ml CDDP) was 1.284 and the “SRB Average” value ([1]; LNCaP Run 3, 72 h, 0.1 μg/ml CDDP) was 2.009. For the same compound, the “SRB Average” value ([1]; LNCaP Run 3, 72 h, 1 μg/ml CDDP) was 1.584, the “SRB Average” value ([1]; LNCaP Run 3, 72 h, 10 μg/ml CDDP) was 1.561 and the “SRB Average” value ([1]; LNCaP Run 3, 72 h, 100 μg/ml CDDP) was 1.421. The ABSORBANCE ([1]; 48 h) was 1.681, the ABSORBANCE ([1]; 72 h) was 1.766 and the “Average SRB 24 h” value ([1]; Run 1, 0.1 μg/ml CDDP) was 1.611. The “Average SRB 48 h” value ([1]; Run 1, 0.1 μg/ml CDDP) was 2.798, the “Average SRB 72 h” value ([1]; Run 1, 0.1 μg/ml CDDP) was 2.532 and the “Average SRB 24 h” value ([1]; Run 1, 1 μg/ml CDDP) was 1.294. For the same compound, the “Average SRB 48 h” value ([1]; Run 1, 1 μg/ml CDDP) was 2.888, the “Average SRB 72 h” value ([1]; Run 1, 1 μg/ml CDDP) was 2.483 and the “Average SRB 24 h” value ([1]; Run 1, 10 μg/ml CDDP) was 1.205. For the same compound, the “Average SRB 48 h” value ([1]; Run 1, 10 μg/ml CDDP) was 2.893, the “Average SRB 72 h” value ([1]; Run 1, 10 μg/ml CDDP) was 2.648 and the “Average SRB 24 h” value ([1]; Run 1, 100 μg/ml CDDP) was 1.2. For the same compound, the “Average SRB 48 h” value ([1]; Run 1, 100 μg/ml CDDP) was 2.555, the “Average SRB 72 h” value ([1]; Run 1, 100 μg/ml CDDP) was 2.649 and the “Average SRB 24 h” value ([1]; Run 2, 0.1 μg/ml CDDP) was 1.78. The “Average SRB 48 h” value ([1]; Run 2, 0.1 μg/ml CDDP) was 1.681, the “Average SRB 72 h” value ([1]; Run 2, 0.1 μg/ml CDDP) was 1.766 and the “Average SRB 24 h” value ([1]; Run 2, 1 μg/ml CDDP) was 1.495. For the same compound, the “Average SRB 48 h” value ([1]; Run 2, 1 μg/ml CDDP) was 1.14, the “Average SRB 72 h” value ([1]; Run 2, 1 μg/ml CDDP) was 1.396 and the “Average SRB 24 h” value ([1]; Run 2, 10 μg/ml CDDP) was 0.982. The “Average SRB 48 h” value ([1]; Run 2, 10 μg/ml CDDP) was 1.077, the “Average SRB 72 h” value ([1]; Run 2, 10 μg/ml CDDP) was 1.28 and the “Average SRB 24 h” value ([1]; Run 2, 100 μg/ml CDDP) was 0.985. The “Average SRB 48 h” value ([1]; Run 2, 100 μg/ml CDDP) was 1.138, the “Average SRB 72 h” value ([1]; Run 2, 100 μg/ml CDDP) was 1.25 and the ABSORBANCE ([2]; A375, 48 h) was 0.332. For the same compound, the ABSORBANCE ([2]; A375, 72 h) was 0.479, the “Average absorbance, MTT 24 h” value ([2]; 0.1 μg/ml CDDP) was 0.34 and the “Average absorbance, MTT 48 h” value ([2]; 0.1 μg/ml CDDP) was 0.332. The “Average absorbance, MTT 72 h” value ([2]; 0.1 μg/ml CDDP) was 0.479, the “Average absorbance, MTT 24 h” value ([2]; 1 μg/ml CDDP) was 0.068 and the “Average absorbance, MTT 48 h” value ([2]; 1 μg/ml CDDP) was 0.048. For the same compound, the “Average absorbance, MTT 72 h” value ([2]; 1 μg/ml CDDP) was 0.042, the “Average absorbance, MTT 24 h” value ([2]; 10 μg/ml CDDP) was 0.066 and the “Average absorbance, MTT 48 h” value ([2]; 10 μg/ml CDDP) was 0.044. For the same compound, the “Average absorbance, MTT 72 h” value ([2]; 10 μg/ml CDDP) was 0.04, the “Average absorbance, MTT 24 h” value ([2]; 100 μg/ml CDDP) was 0.049 and the “Average absorbance, MTT 48 h” value ([2]; 100 μg/ml CDDP) was 0.038. The “Average absorbance, MTT 72 h” value ([2]; 100 μg/ml CDDP) was 0.036, the “Average absorbance MTT” value ([2]; A375 Run 2, 24 h, 0.1 μg/ml CDDP) was 0.367 and the “Average absorbance MTT” value ([2]; A375 Run 2, 24 h, 1 μg/ml CDDP) was 0.047. For the same compound, the “Average absorbance MTT” value ([2]; A375 Run 2, 24 h, 10 μg/ml CDDP) was 0.049, the “Average absorbance MTT” value ([2]; A375 Run 2, 24 h, 100 μg/ml CDDP) was 0.031 and the “Average absorbance MTT” value ([2]; A375 Run 2, 48 h, 0.1 μg/ml CDDP) was 0.598. The “Average absorbance MTT” value ([2]; A375 Run 2, 48 h, 1 μg/ml CDDP) was 0.046, the “Average absorbance MTT” value ([2]; A375 Run 2, 48 h, 10 μg/ml CDDP) was 0.045 and the “Average absorbance MTT” value ([2]; A375 Run 2, 48 h, 100 μg/ml CDDP) was 0.048. The “Average absorbance MTT” value ([2]; A375 Run 2, 72 h, 0.1 μg/ml CDDP) was 0.696, the “Average absorbance MTT” value ([2]; A375 Run 2, 72 h, 1 μg/ml CDDP) was 0.049 and the “Average absorbance MTT” value ([2]; A375 Run 2, 72 h, 10 μg/ml CDDP) was 0.042. For the same compound, the “Average absorbance MTT” value ([2]; A375 Run 2, 72 h, 100 μg/ml CDDP) was 0.038, the “Average absorbance MTT” value ([2]; A375 Run 3, 24 h, 0.1 μg/ml CDDP) was 0.25 and the “Average absorbance MTT” value ([2]; A375 Run 3, 24 h, 1 μg/ml CDDP) was 0.052. For the same compound, the “Average absorbance MTT” value ([2]; A375 Run 3, 24 h, 10 μg/ml CDDP) was 0.054, the “Average absorbance MTT” value ([2]; A375 Run 3, 24 h, 100 μg/ml CDDP) was 0.01 and the “Average absorbance MTT” value ([2]; A375 Run 3, 48 h, 0.1 μg/ml CDDP) was 0.422. The “Average absorbance MTT” value ([2]; A375 Run 3, 48 h, 1 μg/ml CDDP) was 0.041, the “Average absorbance MTT” value ([2]; A375 Run 3, 48 h, 10 μg/ml CDDP) was 0.037 and the “Average absorbance MTT” value ([2]; A375 Run 3, 48 h, 100 μg/ml CDDP) was 0.036. The “Average absorbance MTT” value ([2]; A375 Run 3, 72 h, 0.1 μg/ml CDDP) was 0.413, the “Average absorbance MTT” value ([2]; A375 Run 3, 72 h, 1 μg/ml CDDP) was 0.026 and the “Average absorbance MTT” value ([2]; A375 Run 3, 72 h, 10 μg/ml CDDP) was 0.033. The “Average absorbance MTT” value ([2]; A375 Run 3, 72 h, 100 μg/ml CDDP) was 0.031.
